# Source: BindingDB's records for doi:10.1016/s0960-894x(02)00516-4 (Atherogenics, 2002)
# Assay: Inhibition of TNF-alpha inducible Vascular cell adhesion molecule-1 expression.
row,SMILES,IC50
1,"CC(C)(Sc1cc(C(C)(C)C)c(O)c(C(C)(C)C)c1)Sc1cc(C(C)(C)C)c(OC(=O)C(F)(F)C(F)(F)C(F)(F)C(=O)O)c(C(C)(C)C)c1 [2,2,3,3,4,4-Hexafluoro-pentanedioic acid mono-{2,6-di-tert-butyl-4-[1-(3,5-di-tert-butyl-4-hydroxy-phenylsulfanyl)-1-methyl-ethylsulfanyl]-phenyl} ester]",100 µM
2,"CC(=O)O/C(=C\C(=O)Oc1c(C(C)(C)C)cc(SC(C)(C)Sc2cc(C(C)(C)C)c(O)c(C(C)(C)C)c2)cc1C(C)(C)C)C(=O)O [2,6-di(tert-butyl)-4-{1-[3,5-di(tert-butyl)-4-hydroxyphenylsulfanyl]-1-methylethylsulfanyl}phenyl 3-carboxylicacid-3-methylcarbonyloxy-(E)-2-propenoate]",17 µM
3,"CC(C)(Sc1cc(C(C)(C)C)c(O)c(C(C)(C)C)c1)Sc1cc(C(C)(C)C)c(O)c(C(C)(C)C)c1 [2,6-di-tert-butyl-4-(2-(3,5-di-tert-butyl-4-hydroxyphenylthio)propan-2-ylthio)phenol]",> 50 µM
4,"CC(C)(Sc1cc(C(C)(C)C)c(O)c(C(C)(C)C)c1)Sc1cc(C(C)(C)C)c(OC(=O)CC(O)CO)c(C(C)(C)C)c1 (stereo not drawn) [3,4-Dihydroxy-butyric acid 2,6-di-tert-butyl-4-[1-(3,5-di-tert-butyl-4-hydroxy-phenylsulfanyl)-1-methyl-ethylsulfanyl]-phenyl ester]",8 µM
5,"CC(C)(CO)CC(=O)Oc1c(C(C)(C)C)cc(SC(C)(C)Sc2cc(C(C)(C)C)c(O)c(C(C)(C)C)c2)cc1C(C)(C)C [4-Hydroxy-3,3-dimethyl-butyric acid 2,6-di-tert-butyl-4-[1-(3,5-di-tert-butyl-4-hydroxy-phenylsulfanyl)-1-methyl-ethylsulfanyl]-phenyl ester]",110 µM
6,"CC(C)(Sc1cc(C(C)(C)C)c(O)c(C(C)(C)C)c1)Sc1cc(C(C)(C)C)c(OC(=O)C[C@@H](NC(=O)Cc2ccccc2)C(=O)O)c(C(C)(C)C)c1 [(R)-2-Phenylacetylamino-succinic acid 4-{2,6-di-tert-butyl-4-[1-(3,5-di-tert-butyl-4-hydroxy-phenylsulfanyl)-1-methyl-ethylsulfanyl]-phenyl} ester]",20 µM
7,"CC(C)(Sc1cc(C(C)(C)C)c(O)c(C(C)(C)C)c1)Sc1cc(C(C)(C)C)c(OC(=O)CO)c(C(C)(C)C)c1 [Hydroxy-acetic acid 2,6-di-tert-butyl-4-[1-(3,5-di-tert-butyl-4-hydroxy-phenylsulfanyl)-1-methyl-ethylsulfanyl]-phenyl ester]",30 µM
8,"CC(C)(Sc1cc(C(C)(C)C)c(O)c(C(C)(C)C)c1)Sc1cc(C(C)(C)C)c(OC(=O)C(=O)O)c(C(C)(C)C)c1 [Oxalic acid mono-{2,6-di-tert-butyl-4-[1-(3,5-di-tert-butyl-4-hydroxy-phenylsulfanyl)-1-methyl-ethylsulfanyl]-phenyl} ester]",> 50 µM
9,"CC(C)(Sc1cc(C(C)(C)C)c(OC(=O)CCC(=O)O)c(C(C)(C)C)c1)Sc1cc(C(C)(C)C)c(OC(=O)CCC(=O)O)c(C(C)(C)C)c1 [Succinic acid mono-(2,6-di-tert-butyl-4-{1-[3,5-di-tert-butyl-4-(3-carboxy-propionyloxy)-phenylsulfanyl]-1-methyl-ethylsulfanyl}-phenyl) ester]",> 50 µM

# More lines, now with the values ahead:
row,IC50,SMILES
1,30 µM,"CC(C)(Sc1cc(C(C)(C)C)c(O)c(C(C)(C)C)c1)Sc1cc(C(C)(C)C)c(OC(=O)CCO)c(C(C)(C)C)c1 [3-Hydroxy-propionic acid 2,6-di-tert-butyl-4-[1-(3,5-di-tert-butyl-4-hydroxy-phenylsulfanyl)-1-methyl-ethylsulfanyl]-phenyl ester]"
2,40 µM,"CC(C)(Sc1cc(C(C)(C)C)c(O)c(C(C)(C)C)c1)Sc1cc(C(C)(C)C)c(OC(=O)CCCO)c(C(C)(C)C)c1 [4-Hydroxy-butyric acid 2,6-di-tert-butyl-4-[1-(3,5-di-tert-butyl-4-hydroxy-phenylsulfanyl)-1-methyl-ethylsulfanyl]-phenyl ester]"
3,55 µM,"CC(C)(Sc1cc(C(C)(C)C)c(O)c(C(C)(C)C)c1)Sc1cc(C(C)(C)C)c(OC(=O)CCCCO)c(C(C)(C)C)c1 [5-Hydroxy-pentanoicacid2,6-di-tert-butyl-4-[1-(3,5-di-tert-butyl-4-hydroxy-phenylsulfanyl)-1-methyl-ethylsulfanyl]-phenyl ester]"
4,25 µM,"CC(C)(Sc1cc(C(C)(C)C)c(O)c(C(C)(C)C)c1)Sc1cc(C(C)(C)C)c(OC(=O)[C@@H](O)CCC(=O)O)c(C(C)(C)C)c1 [(S)-2-Hydroxy-pentanedioic acid 1-{2,6-di-tert-butyl-4-[1-(3,5-di-tert-butyl-4-hydroxy-phenylsulfanyl)-1-methyl-ethylsulfanyl]-phenyl} ester]"
5,45 µM,"CC(C)(Sc1cc(C(C)(C)C)c(O)c(C(C)(C)C)c1)Sc1cc(C(C)(C)C)c(OC(=O)CCCCCCC(=O)O)c(C(C)(C)C)c1 [Octanedioic acid mono-{2,6-di-tert-butyl-4-[1-(3,5-di-tert-butyl-4-hydroxy-phenylsulfanyl)-1-methyl-ethylsulfanyl]-phenyl} ester]"
6,9 µM,"CC(C)(Sc1cc(C(C)(C)C)c(O)c(C(C)(C)C)c1)Sc1cc(C(C)(C)C)c(OC(=O)CCCC(=O)O)c(C(C)(C)C)c1 [Pentanedioic acid mono-{2,6-di-tert-butyl-4-[1-(3,5-di-tert-butyl-4-hydroxy-phenylsulfanyl)-1-methyl-ethylsulfanyl]-phenyl} ester]"
7,40 µM,"COC(=O)CCC(=O)Oc1c(C(C)(C)C)cc(SC(C)(C)Sc2cc(C(C)(C)C)c(O)c(C(C)(C)C)c2)cc1C(C)(C)C [Succinic acid 2,6-di-tert-butyl-4-[1-(3,5-di-tert-butyl-4-hydroxy-phenylsulfanyl)-1-methyl-ethylsulfanyl]-phenyl ester methyl ester]"
8,6 µM,"CC(C)(Sc1cc(C(C)(C)C)c(O)c(C(C)(C)C)c1)Sc1cc(C(C)(C)C)c(OC(=O)CCC(=O)O)c(C(C)(C)C)c1 [Succinic acid mono-{2,6-di-tert-butyl-4-[1-(3,5-di-tert-butyl-4-hydroxy-phenylsulfanyl)-1-methyl-ethylsulfanyl]-phenyl} ester]"
9,37 µM,"CC(C)(Sc1cc(C(C)(C)C)c(O)c(C(C)(C)C)c1)Sc1cc(C(C)(C)C)c(OC(=O)COCC(=O)O)c(C(C)(C)C)c1 [{2,6-Di-tert-butyl-4-[1-(3,5-di-tert-butyl-4-hydroxy-phenylsulfanyl)-1-methyl-ethylsulfanyl]-phenoxycarbonylmethoxy}-acetic acid]"
